Results on 52 compounds are retold here after BindingDB's records for doi:10.1021/jm060797q (Teikyo University, 2006).

The nature of this test: Antagonist activity against 1-alpha,25-dihydroxy vitamin D3-induced HL60 cell differentiation by NBT reduction method.

In turn, `C=C1/C(=C\C=C2/CCC[C@]3(C)[C@@H]([C@H](C)C[C@H]4OC(=O)C(=C)[C@@H]4CCC)CC[C@@H]23)C[C@@H](O)[C@H](C)[C@@H]1O` registered a half-inhibitory concentration (IC50) of 6.3 nM. That is a single-digit nanomolar value. On to `C=C1C(=O)O[C@H](C[C@@H](C)[C@H]2CC[C@H]3/C(=C/C=C4/C[C@@H](O)C[C@H](O)C4=C)CCC[C@]23C)[C@@H]1CC(C)C`, for which the half-inhibitory concentration (IC50) was 10 nM. Under `C=C1/C(=C\C=C2/CCC[C@]3(C)[C@@H]([C@H](C)C[C@H]4OC(=O)C(=C)[C@@H]4CCCC)CC[C@@H]23)C[C@@H](O)[C@H](CCCO)[C@@H]1O` stands 8.8 nM; under `C=C1/C(=C\C=C2/CCC[C@]3(C)[C@@H]([C@H](C)C[C@H]4OC(=O)C(=C)[C@@H]4CC(C)C)CC[C@@H]23)C[C@@H](O)C[C@@H]1O`, 10 nM; under `C=C1C(=O)O[C@@H](C[C@@H](C)[C@H]2CC[C@H]3/C(=C/C=C4/C[C@@H](O)C[C@H](O)C4=C)CCC[C@]23C)[C@@H]1CC(C)C`, 9.3 nM. `C=C1/C(=C\C=C2/CCC[C@]3(C)[C@@H]([C@H](C)C[C@H]4OC(=O)C(=C)[C@H]4CC(C)C)CC[C@@H]23)C[C@@H](O)[C@H](CCCO)[C@@H]1O` returned an IC50 of 9.3 nM. That is a single-digit nanomolar value. Regarding `C=C1/C(=C\C=C2/CCC[C@]3(C)[C@@H]([C@H](C)C[C@@H]4OC(=O)C(=C)[C@@H]4CCC)CC[C@@H]23)C[C@@H](O)[C@H](OCCCO)[C@@H]1O`, the concentration for half-maximal inhibition (IC50) was determined as 6.3 nM. `C=C1C[C@@H](C[C@@H](C)[C@H]2CC[C@H]3/C(=C/C=C4/C[C@@H](O)C[C@H](O)C4=C)CCC[C@]23C)OC1=O` showed an IC50 of 6 nM.

The compound `C=C1/C(=C\C=C2/CCC[C@]3(C)[C@@H]([C@H](C)C[C@H]4OC(=O)C(=C)[C@@H]4C)CC[C@@H]23)C[C@@H](O)[C@H](CCCO)[C@@H]1O` displayed an IC50 of 6.2 nM. Regarding `C=C1/C(=C\C=C2/CCC[C@]3(C)[C@@H]([C@H](C)C[C@H]4OC(=O)C(=C)[C@H]4CCC)CC[C@@H]23)C[C@@H](O)[C@H](OCCCO)[C@@H]1O`, inhibition was half-maximal at 6.3 nM (IC50). This IC50 and that of the compound before are within 1.5-fold of each other. The compound `C=C1/C(=C\C=C2/CCC[C@]3(C)[C@@H]([C@H](C)C[C@@H]4OC(=O)C(=C)[C@@H]4CCCC)CC[C@@H]23)C[C@@H](O)[C@H](OCCCO)[C@@H]1O` registered an IC50 of 8.8 nM. `C=C1/C(=C\C=C2/CCC[C@]3(C)[C@@H]([C@H](C)C[C@@H]4OC(=O)C(=C)[C@@H]4C)CC[C@@H]23)C[C@@H](O)[C@H](C)[C@@H]1O` displayed a half-maximal inhibitory concentration (IC50) of 6.8 nM. `C=C1/C(=C\C=C2/CCC[C@]3(C)[C@@H]([C@H](C)C[C@@H]4OC(=O)C(=C)[C@@H]4CCCC)CC[C@@H]23)C[C@@H](O)[C@H](C)[C@@H]1O` had an IC50 of 6.7 nM.

In turn, `C=C1C(=O)O[C@H](C[C@@H](C)[C@H]2CC[C@H]3/C(=C/C=C4/C[C@@H](O)[C@H](OCCCO)[C@H](O)C4=C)CCC[C@]23C)[C@@H]1C` gave a 50% inhibitory concentration (IC50) of 6.1 nM. The IC50 values of the last two compounds are within 1.5-fold of each other. As to `C=C1C(=O)O[C@H](C[C@@H](C)[C@H]2CC[C@H]3/C(=C/C=C4/C[C@@H](O)C[C@H](O)C4=C)CCC[C@]23C)[C@@H]1CCCC`, the IC50 turned out to be 8.2 nM. On to `C=C1/C(=C\C=C2/CCC[C@]3(C)[C@@H]([C@H](C)C[C@@H]4OC(=O)C(=C)[C@H]4CC)CC[C@@H]23)C[C@@H](O)[C@H](CCCO)[C@@H]1O`, for which the half-maximal inhibitory concentration (IC50) worked out at 8.4 nM. On to `C=C1/C(=C\C=C2/CCC[C@]3(C)[C@@H]([C@H](C)C[C@H]4OC(=O)C(=C)[C@H]4CCC)CC[C@@H]23)C[C@@H](O)[C@H](CCCO)[C@@H]1O`, for which inhibition was half-maximal at 6.3 nM (IC50). In the case of `C=C1/C(=C\C=C2/CCC[C@]3(C)[C@@H]([C@H](C)C[C@H]4OC(=O)C(=C)[C@H]4CCC)CC[C@@H]23)C[C@@H](O)[C@H](C)[C@@H]1O`, half-maximal inhibition (IC50) required 6.3 nM. This counts as single-digit nanomolar.

Regarding `C=C1/C(=C\C=C2/CCC[C@]3(C)[C@@H]([C@H](C)C[C@H]4OC(=O)C(=C)[C@H]4CC)CC[C@@H]23)C[C@@H](O)[C@H](C)[C@@H]1O`, it took 6.7 nM to reach half-maximal inhibition (IC50). Take `C=C1/C(=C\C=C2/CCC[C@]3(C)[C@@H]([C@H](C)C[C@H]4OC(=O)C(=C)[C@H]4CCCC)CC[C@@H]23)C[C@@H](O)[C@H](CCCO)[C@@H]1O`: half-maximal inhibition (IC50) was put at 8.8 nM. Turning to `C=C1/C(=C\C=C2/CCC[C@]3(C)[C@@H]([C@H](C)C[C@@H]4OC(=O)C(=C)[C@@H]4CCC)CC[C@@H]23)C[C@@H](O)[C@H](C)[C@@H]1O`, half-maximal inhibition (IC50) was put at 6.3 nM. Compound `C=C1/C(=C\C=C2/CCC[C@]3(C)[C@@H]([C@H](C)C[C@@H]4OC(=O)C(=C)[C@@H]4C)CC[C@@H]23)C[C@@H](O)[C@H](CCCO)[C@@H]1O` returned a 50% inhibitory concentration (IC50) of 6.2 nM. This IC50 and that of the compound before are within 1.5-fold of each other. As for `C=C1/C(=C\C=C2/CCC[C@]3(C)[C@@H]([C@H](C)C[C@H]4OC(=O)C(=C)C4(C)C)CC[C@@H]23)C[C@@H](O)C[C@@H]1O`, the IC50 was 6 nM. Under `C=C1/C(=C\C=C2/CCC[C@]3(C)[C@@H]([C@H](C)C[C@H]4OC(=O)C(=C)[C@@H]4CCC)CC[C@@H]23)C[C@@H](O)[C@H](CCCO)[C@@H]1O` stands 6.3 nM; under `C=C1/C(=C\C=C2/CCC[C@]3(C)[C@@H]([C@H](C)C[C@@H]4OC(=O)C(=C)[C@@H]4CCCC)CC[C@@H]23)C[C@@H](O)C[C@@H]1O`, 8.2 nM. For the compound `C=C1/C(=C\C=C2/CCC[C@]3(C)[C@@H]([C@H](C)C[C@H]4OC(=O)C(=C)[C@H]4CC(C)C)CC[C@@H]23)C[C@@H](O)[C@H](C)[C@@H]1O`, it took 11 nM to reach half-maximal inhibition (IC50). This IC50 and that of the compound before are within 1.5-fold of each other. `C=C1/C(=C\C=C2/CCC[C@]3(C)[C@@H]([C@H](C)C[C@H]4OC(=O)C(=C)[C@H]4CC(C)C)CC[C@@H]23)C[C@@H](O)[C@H](OCCCO)[C@@H]1O` returned an IC50 of 9.3 nM. This IC50 and that of the compound before are within 1.5-fold of each other. Under `C=C1/C(=C\C=C2/CCC[C@]3(C)[C@@H]([C@H](C)C[C@H]4OC(=O)C(=C)[C@@H]4CC)CC[C@@H]23)C[C@@H](O)C[C@@H]1O` stands 8.6 nM; under `C=C1/C(=C\C=C2/CCC[C@]3(C)[C@@H]([C@H](C)C[C@@H]4OC(=O)C(=C)[C@H]4CCC)CC[C@@H]23)C[C@@H](O)[C@H](C)[C@@H]1O`, 6.3 nM. In the case of `C=C1C(=O)O[C@@H](C[C@@H](C)[C@H]2CC[C@H]3/C(=C/C=C4/C[C@@H](O)C[C@H](O)C4=C)CCC[C@]23C)[C@@H]1CCCC`, the half-inhibitory concentration (IC50) came to 8.2 nM.

For the compound `C=C1C(=O)O[C@@H](C[C@@H](C)[C@H]2CC[C@H]3/C(=C/C=C4/C[C@@H](O)[C@H](C)[C@H](O)C4=C)CCC[C@]23C)[C@@H]1C`, 6.8 nM corresponded to half-maximal inhibition (IC50). On to `C=C1/C(=C\C=C2/CCC[C@]3(C)[C@@H]([C@H](C)C[C@H]4OC(=O)C(=C)[C@@H]4CCCC)CC[C@@H]23)C[C@@H](O)C[C@@H]1O`, for which inhibition was half-maximal at 8.2 nM (IC50). The IC50 values of the last two compounds are within 1.5-fold of each other. For the compound `C=C1/C(=C\C=C2/CCC[C@]3(C)[C@@H]([C@H](C)C[C@H]4OC(=O)C(=C)[C@@H]4C)CC[C@@H]23)C[C@@H](O)C[C@@H]1O`, the midpoint of inhibition, the IC50, lay at 11 nM. Then `C=C1C(=O)O[C@H](C[C@@H](C)[C@H]2CC[C@H]3/C(=C/C=C4/C[C@@H](O)C[C@H](O)C4=C)CCC[C@]23C)[C@@H]1CC`, with 8.6 nM. On to `C=C1/C(=C\C=C2/CCC[C@]3(C)[C@@H]([C@H](C)C[C@@H]4OC(=O)C(=C)[C@@H]4CC(C)C)CC[C@@H]23)C[C@@H](O)C[C@@H]1O`, for which half-maximal inhibition (IC50) required 9.5 nM. For `C=C1/C(=C\C=C2/CCC[C@]3(C)[C@@H]([C@H](C)C[C@@H]4OC(=O)C(=C)[C@@H]4CC(C)C)CC[C@@H]23)C[C@@H](O)[C@H](C)[C@@H]1O`, the IC50 was 11 nM. This IC50 and that of the compound before are within 1.5-fold of each other. Take `C=C1C[C@H](C[C@@H](C)[C@H]2CC[C@H]3/C(=C/C=C4/C[C@@H](O)C[C@H](O)C4=C)CCC[C@]23C)OC1=O`: the 50% inhibitory concentration (IC50) stood at 6.3 nM. Under `C=C1/C(=C\C=C2/CCC[C@]3(C)[C@@H]([C@H](C)C[C@@H]4OC(=O)C(=C)[C@H]4CCCC)CC[C@@H]23)C[C@@H](O)[C@H](CCCO)[C@@H]1O` stands 8.8 nM; under `C=C1C(=O)O[C@H](C[C@@H](C)[C@H]2CC[C@H]3/C(=C/C=C4/C[C@@H](O)[C@H](C)[C@H](O)C4=C)CCC[C@]23C)[C@@H]1C`, 8.1 nM; under `C=C1C(=O)O[C@H](C[C@@H](C)[C@H]2CC[C@H]3/C(=C/C=C4/C[C@@H](O)[C@H](CCCO)[C@H](O)C4=C)CCC[C@]23C)[C@@H]1C`, 6.2 nM. As for `C=C1/C(=C\C=C2/CCC[C@]3(C)[C@@H]([C@H](C)C[C@H]4OC(=O)C(=C)[C@H]4CCCC)CC[C@@H]23)C[C@@H](O)[C@H](OCCCO)[C@@H]1O`, the IC50 was determined as 8.8 nM.

Take `C=C1/C(=C\C=C2/CCC[C@]3(C)[C@@H]([C@H](C)C[C@@H]4OC(=O)C(=C)[C@@H]4CC)CC[C@@H]23)C[C@@H](O)[C@H](C)[C@@H]1O`: the 50% inhibitory concentration (IC50) amounted to 6.7 nM. The compound `C=C1/C(=C\C=C2/CCC[C@]3(C)[C@@H]([C@H](C)C[C@H]4OC(=O)C(=C)[C@@H]4CCCC)CC[C@@H]23)C[C@@H](O)[C@H](C)[C@@H]1O` showed an IC50 of 6.7 nM. Turning to `C=C1/C(=C\C=C2/CCC[C@]3(C)[C@@H]([C@H](C)C[C@@H]4OC(=O)C(=C)[C@@H]4CCCC)CC[C@@H]23)C[C@@H](O)[C@H](CCCO)[C@@H]1O`, half-maximal inhibition (IC50) was put at 8.8 nM. Under `C=C1/C(=C\C=C2/CCC[C@]3(C)[C@@H]([C@H](C)C[C@@H]4OC(=O)C(=C)[C@@H]4C)CC[C@@H]23)C[C@@H](O)[C@H](OCCCO)[C@@H]1O` stands 6.1 nM; under `C=C1C(=O)O[C@@H](C[C@@H](C)[C@H]2CC[C@H]3/C(=C/C=C4/C[C@@H](O)[C@H](CCCO)[C@H](O)C4=C)CCC[C@]23C)[C@@H]1C`, 6.2 nM.

`C=C1/C(=C\C=C2/CCC[C@]3(C)[C@@H]([C@H](C)C[C@H]4OC(=O)C(=C)[C@@H]4CC(C)C)CC[C@@H]23)C[C@@H](O)[C@H](OCCCO)[C@@H]1O` registered a concentration for half-maximal inhibition (IC50) of 9.3 nM. Turning to `C=C1/C(=C\C=C2/CCC[C@]3(C)[C@@H]([C@H](C)C[C@@H]4OC(=O)C(=C)[C@@H]4CCC)CC[C@@H]23)C[C@@H](O)[C@H](CCCO)[C@@H]1O`, half-maximal inhibition (IC50) required 6.3 nM. The IC50 values of the last two compounds are within 1.5-fold of each other.

Take `C=C1/C(=C\C=C2/CCC[C@]3(C)[C@@H]([C@H](C)C[C@@H]4OC(=O)C(=C)[C@H]4CC)CC[C@@H]23)C[C@@H](O)[C@H](OCCCO)[C@@H]1O`: the half-maximal inhibitory concentration (IC50) was 8.4 nM. The IC50 values of the last two compounds are within 1.5-fold of each other.

As to `C=C1/C(=C\C=C2/CCC[C@]3(C)[C@@H]([C@H](C)C[C@@H]4OC(=O)C(=C)[C@@H]4C)CC[C@@H]23)C[C@@H](O)C[C@@H]1O`, the IC50 stood at 7.7 nM. The IC50 values of the last two compounds are within 1.5-fold of each other.

Consider `C=C1/C(=C\C=C2/CCC[C@]3(C)[C@@H]([C@H](C)C[C@@H]4OC(=O)C(=C)[C@@H]4CC(C)C)CC[C@@H]23)C[C@@H](O)[C@H](CCCO)[C@@H]1O`, for which 9.3 nM corresponded to half-maximal inhibition (IC50). Turning to `C=C1/C(=C\C=C2/CCC[C@]3(C)[C@@H]([C@H](C)C[C@@H]4OC(=O)C(=C)[C@@H]4CC)CC[C@@H]23)C[C@@H](O)[C@H](CCCO)[C@@H]1O`, half-maximal inhibition (IC50) was put at 8.4 nM.
